Patent US6153591A, “Dipeptide caspase inhibitors and the use thereof” (Cytovia, Inc., priority 1999, dated 2000)
pIC50: −log10 of the molar value. Square brackets hold non-standard residues; d marks the D form. Peptide text beside a SMILES is read from it. * marks the point of attachment. ξ: configuration not given here. 1Nal = N[C@@H](Cc1cccc2ccccc12)C(=O)O; ξPhg = NC(C(=O)O)c1ccccc1; Cbz = O=C(OCc1ccccc1)*; CH2F = FC*

Key:
caspase-3 (CPP32) = target: T1, caspase-3 (CPP32) (Homo sapiens, UniProt P42574); experiment: Fluorometric enzyme assay of caspase-3 inhibition; type: biochemical; details: recombinant caspase-3, substrate Asp-Glu-Val-Asp-AMC 5 μM, 30° C., 30 minutes
T1 construct: made in house; host or cells: Sf9 insect cells, baculovirus vector
T1 sequence (P42574 29-175 limits assumed): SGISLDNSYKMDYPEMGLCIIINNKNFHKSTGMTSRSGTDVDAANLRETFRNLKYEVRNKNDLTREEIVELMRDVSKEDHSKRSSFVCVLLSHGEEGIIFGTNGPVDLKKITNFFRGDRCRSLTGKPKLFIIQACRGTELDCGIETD
T1 sequence (P42574 176-277 limits assumed): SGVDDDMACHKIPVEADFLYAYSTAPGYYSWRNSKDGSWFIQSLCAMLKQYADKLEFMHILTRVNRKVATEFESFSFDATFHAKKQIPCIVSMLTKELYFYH
Protocol: The activity of Cbz-Phg-Asp-fmk as an inhibitor of caspase-3 (CPP32) was measured in a fluorometric enzyme assay. Recombinant caspase-3 protein was prepared by expressing DNA clones encoding these enzymes in an insect host cell (sf9 cells) using baculovirus as the vector. See, Webb, N.R. et al., "Expression of proteins using recombinant Baculovirus," Techniques 2:173-188 (1990). Enzyme activity was measured using synthetic peptide substrates attached to a fluorogenic leaving group. Cleavage of the synthetic substrate by the enzyme results in a fluorescent signal which is read in a spectrofluorometer or in a fluorometric microtiter plate reader.
Caspase-3 activity was measured using the following buffer conditions: 100 mM HEPES pH 7.5, with 10% sucrose, 1% CHAPS. The peptide substrate for caspase-3 is Asp-Glu-Val-Asp-AMC (SEQ ID NO:2). […] The assay for enzyme activity was typically carried out at 30° C. for 30 minutes.

[1] = tested on: lethality in mice caused by an anti-Fas antibody (clone Jo2); experiment: Protection against lethality in mice caused by anti-Fas antibody (clone Jo2); type: in vivo; details: Swiss Webster female mice, 6 μg Fas antibody
Protocol: Cbz-Phg-Asp-fmk was examined as a protectant against lethality in mice caused by an anti-Fas antibody (clone Jo2) (Rodriguez, I. et al J. Exp. Med 184:2067-2072 (1996). Swiss Webster female mice weighing between 16-20 g were used. Food and water were given ad libium. Purified hamster anti-mouse Fas monoclonal antibody (clone Jo2, commercially available) 1 mg/ml in phosphate buffered saline was dosed i.v. at 6 μg/mouse (80 μl).
Cbz-Phg-Asp-fmk was dissolved in 0.05M Tris base adjusted to pH 8.5 with HCl. The concentration of Cbz-Phg-Asp-fmk was 1-10 mg/ml dosed as a single bolus i.v. in a volume of 1-5 μl/g body weight. Five groups of mice were injected with 6 μg of Fas antibody per mouse. 5 minutes following the antibody injection the mice received either Tris vehicle control or 1, 2.5, 10 or 50 mg/kg of Cbz-Phg-Asp-fmk. The survival of the mice was followed throughout 24 hours.

pIC50 (caspase-3 (CPP32)) | Molecule | also measured
5.02 | CN(C)CC(NC(=O)OCc1ccccc1)C(=O)NC(CC(=O)O)C(=O)CF (stereo not shown) [Z-(3-Me2 N--Ala]--Asp--fmk, Z-(3-Me2 N-Ala)-Asp-fmk] | –
6.28 | N#CCC(NC(=O)OCc1ccccc1)C(=O)NC(CC(=O)O)C(=O)CF (stereo not shown) [Z-[(L)-3-CN--Ala]--Asp--fmk, Z-[(L)-3-CN-Ala]-Asp-fmk] | –
6.22 | CC(C(NC(=O)OCc1ccccc1)C(=O)NC(CC(=O)O)C(=O)CF)C(F)(F)F (stereo not shown) [Z--(F3 --Val)--Asp--fmk, Z-(F3 -Val)-Asp-fmk] | –
6.47 | O=C(O)CC(NC(=O)C(NC(=O)OCc1ccccc1)c1ccsc1)C(=O)CF (stereo not shown) [Z-(3-Thg)--Asp--fmk, Z-(3-Thg)-Asp-fmk] | –
6.36 | O=C(O)CC(NC(=O)C(NC(=O)OCc1ccccc1)c1ccco1)C(=O)CF (stereo not shown) [Z-(2-Fug)--Asp--fmk, Z-(2-Fug)-Asp-fmk] | –
6.00 | O=C(O)CC(NC(=O)C(CCl)NC(=O)OCc1ccccc1)C(=O)CF (stereo not shown) [Z-[(L)-3-Cl--Ala]--Asp--fmk, Z-[(L)-3-Cl-Ala]-Asp-fmk] | –
5.92 | O=C(O)CC(NC(=O)C(NC(=O)OCc1ccccc1)c1ccc(C(F)(F)F)cc1)C(=O)CF (stereo not shown) [Z-(4-CF3 --Phg)--Asp--fmk, Z-(4-CF3 -Phg)-Asp-fmk] | –
6.32 | Z-[3-F-3-Me-Ala]-Asp-fmk [Z-(3-F-3-Me--Ala)--Asp--fmk] | –

Further lines, the molecule ahead of its results:

Molecule | pIC50 (caspase-3 (CPP32)) | also measured
O=C(O)CC(NC(=O)C(CF)NC(=O)OCc1ccccc1)C(=O)CF (stereo not shown) [Z-(3-F-Ala)--Asp--fmk, Z-(3-F-Ala)-Asp-fmk] | 6.05 | –
CC(C)C(CNC(=O)OCc1ccccc1)C(=O)N[C@@H](CC(=O)O)C(=O)CF (stereo partly drawn) [Z-(2-i-Pr-- --Ala)--Asp--fmk, Z-(2-i-Pr-β-Ala)-Asp-fmk] | 5.85 | –
O=C(O)CC(NC(=O)C(NC(=O)OCc1ccccc1)c1ccc(F)cc1)C(=O)CF (stereo not shown) [Z-(4-F-Phg)--Asp--fmk, Z-(4-F-Phg)-Asp-fmk] | 5.92 | –
O=C(O)C[C@H](NC(=O)[C@H](Cc1cccc2ccccc12)NC(=O)OCc1ccccc1)C(=O)CF [Z-[(L)-1-Nal]--Asp--fmk, Z-[(L)-1-Nal]-Asp-fmk] (Cbz-[1Nal]-Asp-CH2F) | 6.00 | –
O=C(O)C[C@H](NC(=O)C(NC(=O)OCc1ccccc1)c1cccs1)C(=O)CF (stereo partly shown) [Z-(2-Thg)--Asp--fmk, Z-(2-Thg)-Asp-fmk] | 6.55 | –
CC(C)(F)[C@H](NC(=O)OCc1ccccc1)C(=O)N[C@@H](CC(=O)O)C(=O)CF [Z-(3-F-Val)--Asp--fmk, Z-(3-F-Val)-Asp-fmk] | 6.36 | –
O=C(O)CC(NC(=O)C(NC(=O)OCc1ccccc1)c1ccccc1F)C(=O)CF (stereo not shown) [Z-(2-F--Phg)--Asp--fmk, Z-(2-F-Phg)-Asp-fmk] | 6.44 | –
O=C(O)CC(NC(=O)C(NC(=O)OCc1ccccc1)c1ccc(Cl)cc1)C(=O)CF (stereo not shown) [Z-(4-Cl--Phg)--Asp--fmk, Z-(4-Cl-Phg)-Asp-fmk] | 6.57 | –
O=C(O)C[C@H](NC(=O)CC(NC(=O)OCc1ccccc1)c1ccccc1)C(=O)CF (stereo partly drawn) [Z-(3-Ph-- --Ala)--Asp--fmk, Z-(3-Ph-β-Ala)-Asp-fmk] | 5.33 | –
O=C(O)C[C@H](NC(=O)C(NC(=O)OCc1ccccc1)c1ccccc1)C(=O)CF (stereo partly drawn) [Cbz-Phg-Asp-fmk] (Cbz-[ξPhg]-Asp-CH2F) | – | Percent survival ([1]; 1 mg/kg i.v., 1 h): 100%; Percent survival ([1]; 1 mg/kg i.v., 3 h): 14.3%; Percent survival ([1]; 1 mg/kg i.v., 24 h): 0%; Percent survival ([1]; 2.5 mg/kg i.v., 1 h): 100%; Percent survival ([1]; 2.5 mg/kg i.v., 3 h): 28.6%; Percent survival ([1]; 2.5 mg/kg i.v., 24 h): 0%; Percent survival ([1]; 10 mg/kg i.v., 1 h): 100%; Percent survival ([1]; 10 mg/kg i.v., 3 h): 42.9%; Percent survival ([1]; 10 mg/kg i.v., 24 h): 14.3%; Percent survival ([1]; 50 mg/kg i.v., 1 h): 100%; Percent survival ([1]; 50 mg/kg i.v., 3 h): 100%; Percent survival ([1]; 50 mg/kg i.v., 24 h): 42.9%
O=C(O)CC(NC(=O)C(NC(=O)OCc1ccccc1)c1ccsc1)C(=O)CF (stereo not shown) [Z-[(L)-3-Thg]--Asp--fmk] [Z-[(L)-3-Thg]-Asp-fmk] | 6.59 | –
O=C(O)CC(NC(=O)C(NC(=O)OCc1ccccc1)c1cccs1)C(=O)CF (stereo not shown) [Z-[(L)-2-Thg]--Asp--fmk, Z-[(L)-2-Thg]-Asp-fmk] | 6.29 | –
